Our source for the IC50 values is patent US9586931B2 (Merck Sharp & Dohme Corp., priority 2012, dated 2017).

The target of the assay is T1, recombinant human GST-Syk (Homo sapiens, UniProt P43405).
T1 construct: purchased Carna Biosciences 08-176
Put plainly: Homogeneous Time-Resolved Fluorescence (HTRF) assay for the recombinant human Syk enzyme. As to conditions: recombinant human GST-Syk 5 pM, ATP 25 μM, 10-dose titration 10 μM to 0.508 nM; read-out: rhSYK Activity IC50. The assay is classed as biochemical. Put shortly: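 GST-hSyk fusion protein phosphorylated a peptide for 45 min at room temperature. The reaction was quenched with 2 nM Eu-anti-phosphotyrosine antibody and 70 nM SA-APC in 15 mM Tris pH 7.5, 40 mM EDTA, 0.01% Tween 20. The HTRF signal was read after 30 min.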

For `CC(=O)N1CCN(C(=O)Cn2cc(-c3cc(C)cc(Nc4nccc(C(F)(F)F)n4)c3)nn2)CC1` [Example 5.59, N-(3-{1-[2-(4-acetylpiperazin-1-yl)-2-oxoethyl]-1H-1,2,3-triazol-4-yl}-5-methylphenyl)-4-(trifluoromethyl)pyrimidin-2-amine], the IC50 amounted to 69.8 nM.
